Marks after values point to notes of the source that are not given here.
What was measured:
male Sprague-Dawley rats [1] = experiment: Feed and weight measurements in male Sprague-Dawley rats injected for 6 weeks; type: in vivo, rat; details: for Fat Weight: visceral fat
Description: (§1) Forty male Sprague-Dawley rats (5 wk old, n=9-10 rats/treatment, from Harlan Sprague-Dawley, Inc., Indianapolis, Ind.) were injected with either genistein (G), daidzein (D), estradiol (E), or a vehicle control (V). Each animal in group V received a daily 0.1 cc subcutaneous injection, for six weeks, of a 10% ethanol-90% olive oil solution; the other treatments received their respective compound as a daily 0.1 cc subcutaneous injection, for six weeks, e.g., 0.1 μg of compound/g of body weight, in a 10% ethanol-90% olive oil solution.
Animal weight and feed intake were measured weekly during the six week study, and the subsequent feed-efficiency ratio [FER (g of weight change/g of feed intake)] was determined. Following sacrifice, the abdominal fat pads, liver, and reproductive organs were removed and weighed for comparison.
(§2) These studies used a randomized design. All data were analyzed by one-way analysis of variance (ANOVA) and post-hoc comparisons were made with Tukey pairwise comparisons test. Significance was confirmed at P≦0.05 (SYSTAT 7.0, SPSS INC., 1997), and all values are reported as means±standard error of the mean.

[2] = system: Cu,Zn superoxide Dimutase (SOD); experiment: Liver Cu,Zn superoxide dimutase activity in injected rats; type: in vivo, rat; details: daily s.c. injection, 6 weeks; P<0.05
Description: as §1
The activity or level of antioxidant enzymes (AOE), catalase (CAT) and Cu,Zn superoxide Dimutase (SOD) in rat liver, were measured to determine the effect of administration of G, D, and E injections on free radical defense systems. A 50 mg piece of whole frozen liver was removed and sonicated in TBS plus 1% Triton X-100. The samples were then centrifuged at 13,000×g for 25 min at 4° C., and the supernatant was collected. Total protein concentration was assayed for subsequent determinations of hepatic AOE activity or absolute level per milligram total protein. SOD activity was determined by spectrophotometry at I=560 nm using xanthine/xanthine oxidase as a superoxide generator and measured against a standard curve of known SOD activities (Sun et al. 1988, 1994). Catalase levels were determined bv Slot blot, which was performed following a representative Western blot that detected no nonspecific binding (Tobin et al. 1979). The bands corresponding to catalase were quantified by densitometry.
as §2

male Sprague-Dawley rats [3] = experiment: Liver weight, cholesterol and triglyceride in male Sprague-Dawley rats injected for 6 weeks; type: in vivo, rat; details: for Liver total triglycerides: as triolein; for Liver total triglycerides / Liver cholesteryl esters / Liver total cholesterol / Liver unesterified cholesterol / Liver weight: daily s.c. injection, 6 weeks; for liver weight as a % of body weight, compared with V: rat, in vivo
Description: (§3) Forty male Sprague-Dawley rats (5 wk old, n=9-10 rats/treatment, from Harlan Sprague-Dawley, Inc., Indianapolis, Ind.) were injected with either genistein (G), daidzein (D), estradiol (E), or a vehicle control (V). Each animal in group V received a daily 0.1 cc subcutaneous injection, for six weeks, of a 10% ethanol-90% olive oil solution; the other treatments received their respective compound as a daily 0.1 cc subcutaneous injection, for six weeks, e.g., 0.1 μg of compound/g of body weight, in a 10% ethanol-90% olive oil solution. Animal weight and feed intake were measured weekly during the six week study, and the subsequent feed-efficiency ratio [FER (g of weight change/g of feed intake)] was determined. Following sacrifice, the abdominal fat pads, liver, and reproductive organs were removed and weighed for comparison. Collected blood was heparinized and centrifuged, plasma aliquots were then used for glucose and total cholesterol determinations, using standard glucose oxidase (Fisher Scientific, St. Louis, Mo.) and cholesterol kits (Fisher Scientific, St. Louis, Mo.). Liver cholesterol and triglyceride analysis. Analytical procedures for determination of liver total cholesterol, unesterified cholesterol, cholesteryl ester, and triglyceride concentrations were as described in Example 1. These studies used a randomized design. All data were analyzed by one-way analysis of variance (ANOVA) and post-hoc comparisons were made with Tukey pairwise comparisons test. Significance was confirmed at P≦0.05 (SYSTAT 7.0, SPSS INC., 1997), and all values are reported as means±standard error of the mean.

male Sprague-Dawley rats [4] = experiment: Plasma glucose and plasma total cholesterol in male Sprague-Dawley rats injected for 6 weeks; type: in vivo, rat; details: 6 weeks injection
Description: as §3, with “solution.” for “solution. Animal weight and feed intake were measured weekly during the six week study, and the subsequent feed-efficiency ratio [FER (g of weight change/g of feed intake)] was determined. Following sacrifice, the abdominal fat pads, liver, and reproductive organs were removed and weighed for comparison.”

[5] = system: stenotic arteries of female macaques; details: intravenous infusion; cited from earlier work

Body, testis, and prostate weight compared to D, G, and V treated animals (male Sprague-Dawley rats [1]; rat, in vivo) | Prostate Weight (male Sprague-Dawley rats [1]; daily s.c. injection, 6 weeks) | Testis Weight (male Sprague-Dawley rats [1]; daily s.c. injection, 6 weeks) [g] | SMILES | Body Weight (male Sprague-Dawley rats [1]; daily s.c. injection, 6 weeks) | Fat Weight (male Sprague-Dawley rats [1]; daily s.c. injection, 6 weeks) | elevation of liver SOD activity over vehicle controls [2] | Liver triglyceride concentrations compared to the E treatment (male Sprague-Dawley rats [3]; P<0.05) | Liver weights vs the V group (male Sprague-Dawley rats [3]; P<0.05) | Liver total triglycerides (male Sprague-Dawley rats [3]) | Liver cholesteryl esters (male Sprague-Dawley rats [3]) | Liver total cholesterol (male Sprague-Dawley rats [3]) | Liver unesterified cholesterol (male Sprague-Dawley rats [3]) [μmol/g liver] | Liver weight (male Sprague-Dawley rats [3]) | liver weight as a % of body weight, compared with V (male Sprague-Dawley rats [3]) | plasma cholesterol levels vs the V group (male Sprague-Dawley rats [4]) | vasoconstriction in stenotic arteries [5]
– | – | – | O=c1c(-c2ccc(O)cc2)coc2cc(O)ccc12 [D, daidzein] | 367.89 g | 11.66 g | approximately 33% | significantly (P<0.05) lower | considerably (P<0.05) lower | 17.980 μmol/g liver | 3.114 μmol/g liver | 5.678 μmol/g liver | 2.563 | 12.857^a g | reduction in relative liver mass | – | –
markedly (P<0.05) lower | – | – | C[C@]12CC[C@@H]3c4ccc(O)cc4CC[C@H]3[C@@H]1CC[C@@H]2O [E, estradiol, reference compound] | 242.50^a,b,c g | 6.71^a,b,c g | approximately 33% | – | – | 32.186^c μmol/g liver | 4.104^a,b μmol/g liver | 6.722^a,b,c μmol/g liver | 2.618 | 10.487^a,b,c g | – | – | –
– | .732 g | 2.90 | O=c1c(-c2ccc(O)cc2)coc2cc(O)cc(O)c12 [G, genistein] | 363.00 g | 11.19 g | 15% | – | considerably (P<0.05) lower | 29.528 μmol/g liver | 2.589 μmol/g liver | 5.189 μmol/g liver | 2.600 | 12.970^a g | reduction in relative liver mass | non-significant trend (P<0.5) toward lower | rapid inhibition
